One series has as its system E coli. The series is described as follows: Host tolerance to hydroxymethyl-3HP, relative OD after 24 hours. In kind it is cell-based. The following applies: 24 hours incubation at 30° C. As to the method: (§1) FIG. 33(a) presents comparative tolerance data of potential host organisms to 3-hydroxymethyl 3-hydroxypropionic acid (HM3HP) where Km=K. marxianus, Sc=S. cerevisiae, Ec=E. coli (from Example 17). Within each grouping, the right bar represents Ec, the left bar represents Km, and the middle bar represents Sc.
(§2) Two eukaryotic strains, I. orientalis and S. cerevisiae, were tested for tolerance to the selected compounds at pH 3 and pH 5. The bacterial strains were grown at their individual optimal conditions, E coli and C. glutamicum at pH 8 and 30° C., and B. firmus and B. cohnii at pH 9 and 37° C. I. orientalis was grown in defined yeast media consisting of 5 g/L ammonium sulfate, 0.5 g/L magnesium sulfate heptahydrate, 3 g/L potassium phosphate monobasic, 10 g/L dextrose, 1 mL/L of 10% glycerol stock, 1 mL/L of 1000× trace. The 1000× trace stock solution contains 4 g/L ZnSO4.7H2O, 2 g/L FeSO4.7H2O, 1 g/L MnSO4.H2O, 0.2 g/L CuSO4.5H2O, and 0.8 mL/L H2SO4. S. cerevisiae was grown in buffered defined dextrose media consisting of 50 g/L dextrose, 5 g/L yeast extract, and 40 mL/L 25×DM salts. The 25×DM salt stock solution contains 125 g/L ammonium sulfate, 12.5 g/L magnesium sulfate heptahydrate, 75 g/L potassium phosphate monobasic, and 787.5 g/L water. The bacterial strains were grown in standard LB media consisting of 10 g/L bacto-tryptone, 5 g/L yeast extract, 10 g/L NaCl, and 20 g/L dextrose with addition of 20 g/L glucose.
(§3) In one embodiment, alpha substituted 3-hydroxypropionic acid is produced by the host organism. In a specific embodiment, alpha hydroxymethyl 3-hydroxypropionic acid is produced by the host organism. To evaluate host organisms, the protocol described above was used. The relative OD at the end of 24 hours incubation at 30° C. was compared for Kluyveromyces marxianus, S. cerevisiae, and E coli in the presence of different amounts of hydroxymethyl-3HP (FIG. 33(a)).

A further series relates to Kluyveromyces marxianus. The description is as above. Type of series: cell-based. Particulars: K. marxianus, 24 hours incubation at 30° C. As to the method:
as §1, §2, §3

For another series, the system named is S. cerevisiae. The description is as above. Type of series: cell-based. Particulars: 24 hours incubation at 30° C. As to the method:
as §1, §2, §3

Series [1] can be described thus: Dehydration of HM3HP to HMA at different temperature and pH (NMR). Particulars: overnight. In kind it is physicochemical. As for the experimental part:
In the case of the microorganism producing alpha-substituted 3-hydroxymethyl acid, such as in Examples 9 and 21, this compound is dehydrated to alpha-substituted acrylic acid. In one embodiment, alpha-hydroxymethyl 3-hydroxypropionic acid (HM3HP) is dehydrated to alpha-hydroxymethyl acrylic acid (HMA). A known amount of HM3HP was dissolved into buffered solution. […] Samples were incubated at −20° C., 30° C., or 70° C. overnight. NMR analysis was used to measure the amount of HM3HP that was dehydrated to HMA. […] The pH of the solution had more effect on conversion to HMA than did changes in temperature.

The next series deals with E. coli. The series is described as follows: Host tolerance: growth rate with compound versus unchallenged cells. Type of series: cell-based. Particulars: pH 8, 30° C. As to the method: Two eukaryotic strains, I. orientalis and S. cerevisiae, were tested at pH 3 and pH 5. Three bacterial strains were tested using their individual optimal conditions. E. coli and C. glutamicum were tested at pH 8 and 30° C., and B. firmus was tested at pH 9 and 37° C. I. orientalis was grown in defined yeast media consisting of 5 g/L ammonium sulfate, 0.5 g/L magnesium sulfate heptahydrate, 3 g/L potassium phosphate monobasic, 10 g/L dextrose, 1 mL/L of 10% glycerol stock, 1 mL/L of 1000× trace. The 1000× trace stock solution contains 4 g/L ZnSO4.7H2O, 2 g/L FeSO4.7H2O, 1 g/L MnSO4.H2O, 0.2 g/L CuSO4.5H2O, and 0.8 mL/L H2SO4. […]
Time points were taken over a period of at least 8 hours and up to 24 hours to calculate the rate of growth. Specific growth rate was determined by plotting the natural logarithm of cell number against time. Tolerance was determined by growth rate of cells in the presence of the compound as compared to in the absence of the compound. […]
(§4) Time points were taken over a period of at least 8 hours and up to 24 hours to calculate the rate of growth. Specific growth rate was determined by plotting the natural logarithm of cell number against time. Tolerance was determined by growth rate of cells in the presence of the compound as compared to in the absence of the compound.

The subject of another series is B. firmus. The series is described as above. Type of series: cell-based. Particulars: pH 9, 37° C. As to the method: (§5) Potential hosts for the described pathways to alpha substituted C4 dicarboxylic acids were identified by determining the tolerance to functionalized alpha substituted dicarboxylic acids as shown in FIG. 2. Specific functionalized alpha substituted C4 dicarboxylic acid compounds were selected to assess tolerance of bacterial and eukaryotic hosts.
(§6) Two eukaryotic strains, I. orientalis and S. cerevisiae, were tested at pH 3 and pH 5. Three bacterial strains were tested using their individual optimal conditions. E. coli and C. glutamicum were tested at pH 8 and 30° C., and B. firmus was tested at pH 9 and 37° C. I. orientalis was grown in defined yeast media consisting of 5 g/L ammonium sulfate, 0.5 g/L magnesium sulfate heptahydrate, 3 g/L potassium phosphate monobasic, 10 g/L dextrose, 1 mL/L of 10% glycerol stock, 1 mL/L of 1000× trace. The 1000× trace stock solution contains 4 g/L ZnSO4.7H2O, 2 g/L FeSO4.7H2O, 1 g/L MnSO4.H2O, 0.2 g/L CuSO4.5H2O, and 0.8 mL/L H2SO4. S. cerevisiae was grown in buffered defined dextrose media consisting of 50 g/L dextrose, 5 g/L yeast extract, and 40 mL/L 25× DM salts. The 25× DM salt stock solution contains 125 g/L ammonium sulfate, 12.5 g/L magnesium sulfate heptahydrate, 75 g/L potassium phosphate monobasic, and 787.5 g/L water. The bacterial strains were grown in standard LB media consisting of 10 g/L bacto-tryptone, 5 g/L yeast extract, 10 g/L NaCl, and 20 g/L dextrose with addition of 20 g/L glucose.
(§7) Time points were taken over a period of at least 8 hours and up to 24 hours to calculate the rate of growth. Specific growth rate was determined by plotting the natural logarithm of cell number against time. Tolerance was determined by growth rate of cells in the presence of the compound as compared to in the absence of the compound. The scoring method is indicated in Table D. The results of the tolerance studies are shown in Tables E and F. The second column from the left denotes the maximum concentration of the indicated compound in which growth was detected. […] I. orientalis is also a suitable host for most of the compounds.
(§8) Potential hosts for the described pathways to alpha substituted acrylic acid were identified by determining the tolerance to functionalized alpha substituted acrylic acid end-products as shown generally in FIGS. 1 and 3 and more specifically in FIGS. 9 and 10. […]
(§9) Time points were taken over a period of at least 8 hours and up to 24 hours to calculate the rate of growth. Specific growth rate was determined by plotting the natural logarithm of cell number against time. […]

The next series deals with C. glutamicum. The description is as above. Particulars: pH 8, 30° C. Type of series: cell-based. As to the method: as §5, §6, §7, §8, §9
The test system of series [2] is potential yeast hosts (I. orientalis, S. cerevisiae). The series is described as follows: Tolerance of potential yeast hosts: maximum concentration in which growth was detected. Type of series: cell-based. Particulars: Table E. As for the experimental part:
as §6, §4, §2, §4

The test system of series [3] is potential bacterial hosts (E. coli, C. glutamicum, B. firmus, B. cohnii). Description: Tolerance of potential bacterial hosts: highest concentration with growth observed. Type of series: cell-based. The following applies: Table F, max conc tested 100 g/L. As to the method:
as §6, §4, §2, §4

Series [4] can be described thus: Dehydratase assay: lysate incubated with itatartaric acid, HPLC/NMR. In kind it is biochemical. The following applies: knockout E coli strains (acnA or acnB deleted), lysate with ITT overnight at 30° C., HPLC. As to the method: E. coli optimized genes encoding dehydratases are synthesized and cloned into pTrcHisA (Life Technologies (formerly Invitrogen)). Dehydratase candidates are found in Table I. Plasmids containing the optimized synthase genes are transformed into BL21 E. coli cells. Empty plasmid pTrcHisA are also transformed as a negative control. […]. Flasks are incubated at 30° C. at 250 rpm shaking for 2 hours, then protein production is induced with 0.2 mM IPTG and incubated for 4 more hours at 30° C. while shaking. Cells are harvested by centrifugation and pellets are stored at −80° C.
Cells are lysed using mechanical disruption using a BeadBeater (BopSpec products, Bartlesville, Okla.) using the manufacturer's instructions. […] Protein concentrations of the resulting clarified lysates are measured via BioRad total Protein assay using the manufacturer's instructions. […]
The reaction mixture contains 100 mM TAPS buffer pH 6.8, 100 mM KCl, 100 mM substrate alpha (hydroxymethyl) maleic acid. […] The reactions in these microplates are monitored at 235 nm. Readings are taken every 9 seconds for 10 minutes and the data is used to calculate activities of each enzyme. Background absorbance is measured by the same reaction with no substrate present are subtracted. […]
The lysates were incubated with or without a known amount of synthesized ITT overnight at 30° C., and then the samples were analyzed by HPLC. […]

On to `O=C(O)C(CO)CO` [alpha-hydroxymethyl 3-hydroxypropionic acid], for which the Tolerated concentration result with E coli, in the series on Kluyveromyces marxianus and in the series with S. cerevisiae was “at least 60 g/L” throughout. Besides, the “Relative HMA levels” value in series [1] (pH 3, 30 C.) is given as 0.00; in [1] (pH 3, 70 C.), 0.00; in [1] (pH 3, −20 C.) it was 0.00; in [1] (pH 7, 30 C.), 0.13; in series [1] (pH 7, 70 C.), 0.18; in series [1] (pH 7, −20 C.), 0.13. Further, the “Relative HMA levels” value in series [1] (pH 10, 30 C.) was 1.18; in series [1] (pH 10, 70 C.) it was 1.00; in series [1] (pH 10, −20 C.), 0.81.

With `O=C(O)CC1(C(=O)O)CCC(=O)O1` (centres unmarked) [Homocitrate lactone], the “Tolerance score (percent growth rate as compared to unchallenged cells)” value in the series with E. coli is on record as “+++ (100-90%)”; in the series on B. firmus, “− (10-0%)”; with C. glutamicum it was “− (10-0%)”. Further, the “Max conc (maximum concentration in which growth was detected)” value in [2] turned out to be 100 g/L. Also, the “Highest conc with growth observed” value in series [3] came out at 100 g/L.

`O=C(O)CC[C@@](O)(CC(=O)O)C(=O)O` [Homocitrate]: the “Tolerance score (percent growth rate as compared to unchallenged cells)” value in the series on E. coli is “− (10-0%)”; in the series with B. firmus, “− (10-0%)”; in the series with C. glutamicum it was “+++ (100-90%)”. Besides, the “Max conc (maximum concentration in which growth was detected)” value in series [2] is 100 g/L. Moreover, the “Highest conc with growth observed” value in [3] was found to be 50 g/L.

B1: acnA: E coli aconitase acnA, endogenous dehydratase, GenBank CAA42834 (protein, UniProt P25516 2-891, looked up)
Aconitate hydratase A: SSTLREASKDTLQAKDKTYHYYSLPLAAKSLGDITRLPKSLKVLLENLLRWQDGNSVTEEDIHALAGWLKNAHADREIAYRPARVLMQDFTGVPAVVDLAAMREAVKRLGGDTAKVNPLSPVDLVIDHSVTVDRFGDDEAFEENVRLEMERNHERYVFLKWGKQAFSRFSVVPPGTGICHQVNLEYLGKAVWSELQDGEWIAYPDTLVGTDSHTTMINGLGVLGWGVGGIEAEAAMLGQPVSMLIPDVVGFKLTGKLREGITATDLVLTVTQMLRKHGVVGKFVEFYGDGLDSLPLADRATIANMSPEYGATCGFFPIDAVTLDYMRLSGRSEDQVELVEKYAKAQGMWRNPGDEPIFTSTLELDMNDVEASLAGPKRPQDRVALPDVPKAFAASNELEVNATHKDRQPVDYVMNGHQYQLPDGAVVIAAITSCTNTSNPSVLMAAGLLAKKAVTLGLKRQPWVKASLAPGSKVVSDYLAKAKLTPYLDELGFNLVGYGCTTCIGNSGPLPDPIETAIKKSDLTVGAVLSGNRNFEGRIHPLVKTNWLASPPLVVAYALAGNMNINLASEPIGHDRKGDPVYLKDIWPSAQEIARAVEQVSTEMFRKEYAEVFEGTAEWKGINVTRSDTYGWQEDSTYIRLSPFFDEMQATPAPVEDIHGARILAMLGDSVTTDHISPAGSIKPDSPAGRYLQGRGVERKDFNSYGSRRGNHEVMMRGTFANIRIRNEMVPGVEGGMTRHLPDSDVVSIYDAAMRYKQEQTPLAVIAGKEYGSGSSRDWAAKGPRLLGIRVVIAESFERIHRSNLIGMGILPLEFPQGVTRKTLGLTGEEKIDIGDLQNLQPGATVPVTLTRADGSQEVVPCRCRIDTATELTYYQNDGILHYVIRNMLK
B1: the “Formation of ITT dehydration product” value in series [4] was “capable of producing the observed dehydration product”.

The values are drawn from patent US20180179499A1, “BIOBASED PRODUCTION OF FUNCTIONALIZED ALPHA-SUBSTITUTED ACRYLATES AND C4-DICARBOXYLATES” (BIOAMBER INC., priority 2015, published 2018).
